Laboratory results published in patent US8603227B2, “Composition for prevention of influenza viral infection comprising tannic acid, air filter comprising the same and air cleaning device comprising the filter” (Woongjin Coway Co., Ltd., priority 2009, dated 2013).

Experiments:
Assay type in all cases: cell-based, influenza A virus subtype H1N1
[1] = tested on: influenza A/PR/8 (H1N1); experiment: Plaque assay of tannic acid against influenza A/PR/8 (H1N1) on MDCK cells
Protocol: (§1) Tannic acid was assayed for inhibitory activity against influenza virus as follows.
(§2) As influenza virus strains to be tested, influenza A subtype H1N1 viruses A/PR/8 (H1N1) and A/WSN (H1N1) as well as the WHO standard strain influenza A (H1N1) (A/California/O4/09), which was responsible for the declaration of the 2009 pandemic, were used.
(§3) Tannic acid was used as a sample in the following procedure.
(§4) The MDCK (Mardine Darbine Canine Kidney) cell line was inoculated at a density of 1.5×10^6 cells/mL into 6-well plates which were then incubated at 37° C. for 24 his in a 5% CO2 atmosphere. Separately, tannic acid was diluted to 100 mg/ml (1×) in an injection solution. The dilution was subjected to serial 10-fold dilutions. The specimens thus obtained were added in an amount of 90 μL per well to 96-well plates. 10 uL of an influenza virus sample was added to each well, incubated for 10 min, and 10-fold diluted with PBS. The MDCK cell line which had grown to confluence on the plates was infected with 1 mL of the dilution and incubated for 1 hr. For an “infection+non-administration” control, the MDCK cell line was infected with influenza virus which had not been treated with tannic acid.
(§5) Thereafter, the medium was removed, and a mixture of 1:1 2× agarose:2×MEM containing 10 μg/ml trypsin was added in an amount of 2 mL per well. […]

[2] = tested on: new influenza A (H1N1) (A/California/O4/09); experiment: Plaque assay of tannic acid against new influenza A (H1N1) A/California/O4/09 on MDCK cells
Protocol: as §1, §2, §3, §4, §5

[3] = tested on: influenza A/WSN/33 (H1N1); experiment: Plaque assay of tannic acid against influenza A/WSN/33 (H1N1) on MDCK cells
Protocol: as §1, §2, §3, §4, §5

[4] = (1-treated/control)x100, MDCK plaque count
[5] = virus incubated 10 min with tannic acid, MDCK plaque count

O=C(OC[C@H]1O[C@@H](OC(=O)c2cc(O)c(O)c(OC(=O)c3cc(O)c(O)c(O)c3)c2)[C@H](OC(=O)c2cc(O)c(O)c(OC(=O)c3cc(O)c(O)c(O)c3)c2)[C@@H](OC(=O)c2cc(O)c(O)c(OC(=O)c3cc(O)c(O)c(O)c3)c2)[C@@H]1OC(=O)c1cc(O)c(O)c(OC(=O)c2cc(O)c(O)c(O)c2)c1)c1cc(O)c(O)c(OC(=O)c2cc(O)c(O)c(O)c2)c1 [Tannic Acid, Tannic acid]
Inhibitory Activity [1, 4]: 99.99% | Virus Titer [1, 5]: Not-detected | Inhibitory Activity [2, 4]: 99.99% | Virus Titer [2, 5]: Not-detected | Inhibitory Activity [3, 4]: 99.99% | Virus Titer [3, 5]: Not-detected
